From patent publication EP0065295A1, “Tryptamine derivatives of thienyloxypropanol amines, process for their preparation, pharmaceutical compositions containing them and preparation of the latter” (HOECHST AKTIENGESELLSCHAFT, priority 1981, dated 1982)

Columns and labels:
[1] = Acute toxicity, LD50 mouse i.v.; conditions: in vivo, iv, read-out: Akute Toxizität LD50 Maus i.v.
Text: (§1) Die antihypertensive Wirksamkeit der erfindungsgemäßen Verbindungen kann in verschiedenen pharmakolgischen Tests nachgewiesen werden.

narkotisierten Hund = assay: Blood pressure lowering in the anaesthetised dog; assay type: in vivo; conditions: narkotisierter Hund; compared with Bucindolol
Text: as §1

wachen Hund = assay: Blood pressure lowering in the conscious dog; assay type: in vivo; conditions: wacher Hund; compared with Bucindolol
Text: as §1

[2] = Acute toxicity, LD50 rat i.v.; conditions: in vivo, iv, read-out: Akute Toxizität LD50 Ratte i.v.
Text: as §1

Compound | LD50 [1] | blutdrucksenkend (narkotisierten Hund) | blutdrucksenkend (wachen Hund) | LD50 [2] | LD50 ([1]; Maus, i.v.) | LD50 ([2]; Ratte, i.v.)
CC(C)(Cc1c[nH]c2ccccc12)NCC(O)COc1ccsc1C(N)=O (racemic) [Beispiel 2, 3-<3-[1,1-Dimethyl-2-(indol-3-yl)äthylamino]-2-hydroxy-- propoxy>-thiophen-2-carbonsäureamid] | 74 mg/kg | ähnlich stark und anhaltend blutdrucksenkend wie das bekannte Bucindolol | ähnlich stark und anhaltend blutdrucksenkend wie das bekannte Bucindolol | 86 mg/kg |  | 
CC(C)(Cc1c[nH]c2ccccc12)NCC(O)COc1ccccc1C#N (stereo not drawn) [Bucindolol, 2-<2-Hydroxy-3-<[2-(3-indolyl)-1,1-dimethyläthyl] amino>-propoxy>benzonitril, reference compound] |  |  |  |  | 9.6 mg/kg | 20.2 mg/kg
